# Source: PMC10566733 (PLOS ONE, 2023)
# “And” between values parts separate entries of the source, which are not always exact repeats. Identical values can stand only once. Like-named read-outs stand apart in the source and are kept apart here.
# Columns and labels:
# [1] = test system: bEnd.3 mouse brain endothelial cells
# Method: The bEnd.3 (mouse brain endothelial cell) cell line, purchased from Bioresource Collection and Research Center (BCRC, Taiwan), was used in this study. Prior to experiments, the cells were cultured in Dulbecco’s modified Eagle’s medium (DMEM; HyClone, cat. #SH30003.02) with 10% fetal bovine serum (Gibco, cat. #10437028) and 1% penicillin-streptomycin (Gibco, cat. #15140112), and were passaged every 2–3 days with 0.25% trypsin-EDTA (Gibco, cat. #25200056).
# Cellular metabolic activity was measured by MTT (thiazolyl blue tetrazolium bromide) assay 24 h after treatment by normothermia (37°C), hypothermia (4°C), sodium azide (NaN3)/2-deoxy-D-glucose (2-DG), cytochalasin D, 5-(N-ethyl-N-isopropyl)-amiloride (EIPA), or methyl-beta-cyclodextrin (MβCD). In brief, MTT assay was performed with 2000 cells in culture by first replacing the cell culture medium with medium containing 0.5 mg/ml MTT (Alfa Aesar, cat. #L11939). After a 4-h incubation period to allow for MTT metabolism, the MTT-containing medium was replaced with 100 μl of dimethyl sulfoxide (DMSO; JT Baker), and the culture plate was placed on a shaker for 10 min to allow for dissolution of the violet crystal metabolites. Thereafter, the optical density of the metabolite was measured at 570 nm by an ELISA reader. The optical density of the metabolite in the hypothermia and drug treatment groups was expressed as percentage relative to the optical density of the metabolite in the normothermia and control groups, respectively.
# [2] = endothelial monolayers absent; FITC-TAT 10 μM; Fig 1A
# Method: Briefly, the cells were seeded onto 24-well culture inserts (Falcon Permeable Support for 24-well plate; cat. #353104), and one-half of the medium was replaced every other day, and the cells were cultured for 5 days prior to the performance of a permeability assay. On the day of the assay, the culture medium was replaced with serum-free DMEM with FITC-linked peptides or bovine serum albumin (Sigma).
# [3] = test system: monolayer of bEnd.3 mouse brain endothelial cells; experiment: Permeability across a monolayer of brain endothelial cells (in vitro BBB model); assay type: in vitro ADME; set-up: Diffusion of FITC-TAT across bEnd.3 monolayer / Diffusion of FITC-linked peptide across bEnd.3 monolayer / Diffusion of FITC-TAT across bEnd.3 monolayer, FITC-TAT + TAT / Diffusion of FITC-TAT across bEnd.3 monolayer, FITC-TAT + TATK/R>A: unit not given here; conditions: for Diffusion of FITC-TAT across bEnd.3 monolayer, FITC-TAT + TAT: FITC-TAT 10 μM coupled with non-FITC TAT 10 μM; for Diffusion of FITC-TAT across bEnd.3 monolayer, FITC-TAT + TAT / Diffusion of FITC-TAT across bEnd.3 monolayer, FITC-TAT + TATK/R>A / Diffusion of FITC-TAT across bEnd.3 monolayer / Diffusion of FITC-linked peptide across bEnd.3 monolayer: fluorescence spectrophotometry; for Diffusion of FITC-TAT across bEnd.3 monolayer, FITC-TAT + TATK/R>A: FITC-TAT 10 μM coupled with non-FITC TAT^K/R>A 10 μM; for Diffusion of FITC-TAT across bEnd.3 monolayer: bEnd.3 monolayer on Transwell, serum-free DMEM
# [4] = diffusion time 0.1 h, individual cultures n = 3
# [5] = diffusion time 12 h, individual cultures n = 3
# [6] = diffusion time 24 h, individual cultures n = 3
compound,measurement,setting,value
"CCN(c1nc(N)c(C(=O)N=C(N)N)nc1Cl)C(C)C [EIPA, 5-(N-ethyl-N-isopropyl)-amiloride]","Effect on cellular metabolic activity, MTT",[1],markedly decreased cellular metabolic activity
N=C(N)NCCC[C@H](NC(=O)[C@H](CCCNC(=N)N)NC(=O)[C@H](CCCNC(=N)N)NC(=O)[C@H](CCC(N)=O)NC(=O)[C@H](CCCNC(=N)N)NC(=O)[C@H](CCCNC(=N)N)NC(=O)[C@H](CCCCN)NC(=O)[C@H](CCCCN)NC(=O)[C@H](CCCNC(=N)N)NC(=O)CNC(=O)[C@H](Cc1ccc(O)cc1)NC(=S)Nc1ccc2c(c1)C(=O)OC21c2ccc(O)cc2Oc2cc(O)ccc21)C(=O)O [FITC-TAT],Effect of lowering the temperature to 4°C on diffusion of FITC-TAT across Transwell inserts,[2],had no effect
same,Diffusion of FITC-TAT from upper to lower chamber of Transwell inserts,"[3]; 37°C, regardless of whether monolayers of brain endothelial cells were cultured on the membranes, Fig 1A and 1B",readily diffused across to the lower chamber
same,"Diffusion of FITC-TAT across bEnd.3 monolayer, FITC-TAT + TAT",[3]; [4],1.844 and 1.839 and 1.804
same,"Diffusion of FITC-TAT across bEnd.3 monolayer, FITC-TAT + TAT",[3]; [5],42.0052 and 42.275 and 41.3436
same,"Diffusion of FITC-TAT across bEnd.3 monolayer, FITC-TAT + TAT",[3]; [6],90.1666 and 89.6029 and 94.8903
same,"Diffusion of FITC-TAT across bEnd.3 monolayer, FITC-TAT + TATK/R>A",[3]; [4],1.736 and 1.755 and 1.705
same,"Diffusion of FITC-TAT across bEnd.3 monolayer, FITC-TAT + TATK/R>A",[3]; [5],41.331 and 40.0366 and 39.1388
same,"Diffusion of FITC-TAT across bEnd.3 monolayer, FITC-TAT + TATK/R>A",[3]; [6],85.9302 and 85.5824 and 85.3453
same,Effect of the presence of non-FITC TAT or non-FITC TAT^K/R>A on permeability of the monolayer to FITC-TAT,"[3]; FITC-TAT 10 μM with 10 μM competitor, Fig 3D",only marginally decreased
same,Effect of NaN3 and 2-DG treatment regimens on ability of FITC-TAT to cross the monolayer,"[3]; FITC-TAT 10 μM, NaN3 10 mM and 2-DG 6 mM, 1 h pre-treatment or 24 h, Fig 2B",neither treatment regimens had an effect
same,Diffusion of FITC-TAT across bEnd.3 monolayer,"[3]; FITC-TAT 10 μM, 4°C, diffusion time 0 h, individual cultures n = 10",1.386 and 10.0745 and 1.495 and 1.465 and 7.9907 and 7.9 and 8.057 and 7.849 and 10.0907 and 10.1377
same,Diffusion of FITC-TAT across bEnd.3 monolayer,"[3]; FITC-TAT 10 μM, 4°C, diffusion time 0.5 h, individual cultures n = 10",2.727 and 10.2694 and 1.946 and 2.6148 and 12.2754 and 11.4859 and 13.8266 and 14.9326 and 10.2588 and 10.1802
same,Diffusion of FITC-TAT across bEnd.3 monolayer,"[3]; FITC-TAT 10 μM, 4°C, diffusion time 1 h, individual cultures n = 10",3.318 and 12.0592 and 3.998 and 4.153 and 14.099 and 14.1024 and 12.2279 and 14.4626 and 12.8546 and 12.5004
same,Diffusion of FITC-TAT across bEnd.3 monolayer,"[3]; FITC-TAT 10 μM, 4°C, diffusion time 2 h, individual cultures n = 10",4.184 and 12.4226 and 4.5396 and 5.958 and 21.4454 and 17.4004 and 16.7345 and 14.5981 and 18.4195 and 13.6876
same,Diffusion of FITC-TAT across bEnd.3 monolayer,"[3]; FITC-TAT 10 μM, 4°C, diffusion time 4 h, individual cultures n = 10",12.2948 and 22.4089 and 5.603 and 11.4776 and 26.9335 and 21.9034 and 18.3373 and 22.0326 and 23.9812 and 20.9146
same,Diffusion of FITC-TAT across bEnd.3 monolayer,"[3]; FITC-TAT 10 μM, 4°C, diffusion time 8 h, individual cultures n = 10",23.6561 and 36.4429 and 7.1971 and 15.1917 and 28.8919 and 24.9217 and 33.0378 and 37.6449 and 33.9313 and 51.5353
same,Diffusion of FITC-TAT across bEnd.3 monolayer,"[3]; FITC-TAT 10 μM, 4°C, diffusion time 12 h, individual cultures n = 10",44.603 and 38.3865 and 18.3523 and 26.8326 and 40.1964 and 39.8496 and 31.2218 and 52.2936 and 30.2304 and 54.311
same,Diffusion of FITC-TAT across bEnd.3 monolayer,"[3]; FITC-TAT 10 μM, 37°C, diffusion time 0 h, individual cultures n = 8",2.7408 and 2.991 and 8.292 and 8.146 and 7.613 and 9.624 and 9.686 and 9.768
same,Diffusion of FITC-TAT across bEnd.3 monolayer,"[3]; FITC-TAT 10 μM, 37°C, diffusion time 0.5 h, individual cultures n = 8",5.546 and 5.194 and 16.5195 and 13.9086 and 14.4213 and 13.3482 and 14.7024 and 14.0517
same,Diffusion of FITC-TAT across bEnd.3 monolayer,"[3]; FITC-TAT 10 μM, 37°C, diffusion time 1 h, individual cultures n = 8",8.062 and 7.828 and 16.9226 and 16.4917 and 15.6732 and 12.2867 and 19.4469 and 13.4865
same,Diffusion of FITC-TAT across bEnd.3 monolayer,"[3]; FITC-TAT 10 μM, 37°C, diffusion time 2 h, individual cultures n = 8",13.5165 and 10.5024 and 28.7248 and 24.7001 and 24.2495 and 24.3505
same,FITC-TAT movement across the endothelial monolayer with cytochalasin D,"[3]; cells incubated with 100 μM cytochalasin D, FITC-TAT 10 μM, Fig 4D",increased rather than inhibited
same,Effect of lowering the temperature to 4°C on diffusion of FITC-TAT across Transwell inserts,"[3]; endothelial monolayers present, FITC-TAT 10 μM, Fig 1B",substantially decreased
same,Diffusion of FITC-linked peptide across bEnd.3 monolayer,"[3]; peptide 1 μM (Fig 3A), diffusion time 0.1 h, individual cultures n = 4",16.1034 and 15.6278 and 16.2621 and 16.9227
same,Diffusion of FITC-linked peptide across bEnd.3 monolayer,"[3]; peptide 1 μM (Fig 3A), diffusion time 4 h, individual cultures n = 4",33.068 and 35.9601 and 44.67 and 33.2662
same,Diffusion of FITC-linked peptide across bEnd.3 monolayer,"[3]; peptide 1 μM (Fig 3A), diffusion time 12 h, individual cultures n = 4",59.5062 and 62.0797 and 69.9514 and 60.3513
same,Diffusion of FITC-linked peptide across bEnd.3 monolayer,"[3]; peptide 1 μM (Fig 3A), diffusion time 24 h, individual cultures n = 4",98.4329 and 97.1083 and 108.448 and 96.0109
same,Diffusion of FITC-linked peptide across bEnd.3 monolayer,"[3]; peptide 3 μM (Fig 3B), diffusion time 0.1 h, individual cultures n = 4",5.536 and 5.776 and 5.613 and 5.958
same,Diffusion of FITC-linked peptide across bEnd.3 monolayer,"[3]; peptide 3 μM (Fig 3B), diffusion time 4 h, individual cultures n = 4",30.6967 and 26.8471 and 24.0637 and 21.038
same,Diffusion of FITC-linked peptide across bEnd.3 monolayer,"[3]; peptide 3 μM (Fig 3B), diffusion time 12 h, individual cultures n = 4",69.4896 and 55.4891 and 51.5686 and 64.8124
same,Diffusion of FITC-linked peptide across bEnd.3 monolayer,"[3]; peptide 3 μM (Fig 3B), diffusion time 24 h, individual cultures n = 4",112.045 and 93.6163 and 91.1166 and 103.222
same,Diffusion of FITC-linked peptide across bEnd.3 monolayer,"[3]; peptide 10 μM (Fig 3C), diffusion time 0.1 h, individual cultures n = 4",1.488 and 1.536 and 1.502 and 1.69
same,Diffusion of FITC-linked peptide across bEnd.3 monolayer,"[3]; peptide 10 μM (Fig 3C), diffusion time 4 h, individual cultures n = 4",20.2675 and 19.471 and 18.2115 and 22.8397
same,Diffusion of FITC-linked peptide across bEnd.3 monolayer,"[3]; peptide 10 μM (Fig 3C), diffusion time 12 h, individual cultures n = 4",55.3743 and 53.9149 and 46.6389 and 56.9448
same,Diffusion of FITC-linked peptide across bEnd.3 monolayer,"[3]; peptide 10 μM (Fig 3C), diffusion time 24 h, individual cultures n = 4",95.2978 and 101.031 and 98.8203 and 104.851
same,Diffusion of FITC-linked peptide across bEnd.3 monolayer,"[3]; peptide 10 μM alone (Fig 3D), diffusion time 0.1 h, individual cultures n = 3",1.749 and 1.772 and 1.79
same,Diffusion of FITC-linked peptide across bEnd.3 monolayer,"[3]; peptide 10 μM alone (Fig 3D), diffusion time 12 h, individual cultures n = 3",43.9695 and 46.4386 and 47.7244
same,Diffusion of FITC-linked peptide across bEnd.3 monolayer,"[3]; peptide 10 μM alone (Fig 3D), diffusion time 24 h, individual cultures n = 3",96.1412 and 98.5343 and 105.324
C=C1[C@@H](C)[C@H]2[C@H](Cc3ccccc3)NC(=O)[C@]23[C@H](OC(C)=O)/C=C/[C@@](C)(O)C(=O)[C@@H](C)C/C=C/[C@H]3[C@@H]1O [cytochalasin D],"Effect on cellular metabolic activity, MTT","[1]; bEnd.3, pre-treatment for 30 min followed by washout, Fig 4A",had no effect on cellular metabolic activity
same,"Effect on cellular metabolic activity, MTT","[1]; bEnd.3, sustained treatment for 24 h, Fig 4A",increased cellular metabolic activity in a concentration-dependent manner
methyl-beta-cyclodextrin [MβCD],"Effect on cellular metabolic activity, MTT",[1],markedly decreased cellular metabolic activity
